Data reported in paper doi:10.1101/2024.12.16.628070v1 (bioRxiv, 2024).
Converted amounts (≈) assume the structure as drawn. Where two headings read alike, the source gives them in different places. Where no end group is shown, it is not given here.

How the values were obtained:
Enterobacter cloacae = experiment: MIC, broth microdilution; assay type: cell-based
Morganella morganii = experiment: MIC, broth microdilution; assay type: cell-based
BAM complex = BAM complex (Escherichia coli, UniProt P0A940); experiment: Differential Scanning Fluorimetry of BAM complex in nanodiscs; assay type: binding; settings: read-out: increase in melting temperature (Tm)
E. coli M6 = assay type: cell-based, Escherichia coli
Bacillus cereus = experiment: MIC, broth microdilution; assay type: cell-based; settings: strain ATCC 11778
Acinetobacter baumannii = experiment: MIC, broth microdilution; assay type: cell-based
Bacillus subtilis = experiment: MIC, broth microdilution; assay type: cell-based; settings: strain ATCC 6633
Pseudomonas aeruginosa = experiment: MIC, broth microdilution; assay type: cell-based
Salmonella typhimurium = experiment: MIC, broth microdilution; assay type: cell-based; settings: strain ATCC 14028
[1] = target: BamA-β (transmembrane β-barrel domain of BamA) (Escherichia coli, UniProt P0A940, C690S/C700S); experiment: Surface Plasmon Resonance affinity to BamA-β in LDAO micelles; assay type: binding
Escherichia coli = assay type: cell-based
Staphylococcus aureus = experiment: MIC, broth microdilution; assay type: cell-based
[2] = Single-dose pharmacokinetic study; assay type: in vivo; settings: mouse, blood, ip, 50 mg/kg
Shigella flexneri = experiment: MIC, broth microdilution; assay type: cell-based; settings: strain M90T
Salmonella entereditis = experiment: MIC, broth microdilution; assay type: cell-based; settings: strain ATCC 13076
Klebsiella pneumoniae = experiment: MIC, broth microdilution; assay type: cell-based
Enterococcus faecalis = experiment: MIC, broth microdilution; assay type: cell-based; settings: strain ATCC 29212
[3] = K12 MG1655 BamA F394V, E435K, G443D
[4] = strain ATCC 25922 (WT), broth microdilution, MHB, 18-20 h, 37 °C

CC(C)[C@@H]1NC(=O)[C@@H](N)Cc2c[nH]c3cc(ccc23)C(C(N)=O)[C@@H](C(=O)N[C@@H](C)C(=O)N[C@H]2Cc3cccc(c3)C(CCNC(=N)N)[C@@H](C(=O)N[C@H]3Cc4c[nH]c5cc(ccc45)C(CCCN)[C@@H](C(=O)N[C@@H](CO)C(=O)N[C@@H](Cc4ccccc4)C(=O)O)NC(=O)[C@H](CO)NC3=O)NC(=O)[C@H](C)NC2=O)NC1=O (stereo partly shown) [Compound 2, xenorceptide A2]
MIC (Enterobacter cloacae; strain CRE1010): 4 µg/mL (≈ 2.68 µM) | MIC (Enterobacter cloacae; strain CRE1014): 16 µg/mL (≈ 10.7 µM) | MIC (Enterobacter cloacae; strain CRE1015): 32 µg/mL (≈ 21.4 µM) | MIC (Enterobacter cloacae; strain CRE1016): 16 µg/mL (≈ 10.7 µM) | MIC (Enterobacter cloacae; strain CRE1017): 32 µg/mL (≈ 21.4 µM) | MIC (Morganella morganii; strain ATCC 25830): 32 µg/mL (≈ 21.4 µM) | MIC (Morganella morganii; strain CRE1001): 32 µg/mL (≈ 21.4 µM) | ΔTm at 20 µM (BAM complex): 3.8 °C | MIC after resistance development in serial passage (E. coli M6; after 5-7 days of passage): 32 µg/mL (≈ 21.4 µM) | MIC (Bacillus cereus): >64 µg/mL | MIC (Acinetobacter baumannii; strain ACBA1001): 32 µg/mL (≈ 21.4 µM) | MIC (Acinetobacter baumannii; strain ACBA1002): 32 µg/mL (≈ 21.4 µM) | MIC (Acinetobacter baumannii; strain ACBA1003): 32 µg/mL (≈ 21.4 µM) | MIC (Acinetobacter baumannii; strain ACBA1004): 64 µg/mL (≈ 42.9 µM) | MIC (Acinetobacter baumannii; strain ATCC 19606): >64 µg/mL | MIC (Bacillus subtilis): >64 µg/mL | MIC (Pseudomonas aeruginosa; strain ATCC 9027): 64 µg/mL (≈ 42.9 µM) | MIC (Pseudomonas aeruginosa; strain DM4150R): 64 µg/mL (≈ 42.9 µM) | MIC (Pseudomonas aeruginosa; strain DM23376): >64 µg/mL | MIC (Pseudomonas aeruginosa; strain DR4877/07): 64 µg/mL (≈ 42.9 µM) | MIC (Pseudomonas aeruginosa; strain DR5790/07): 64 µg/mL (≈ 42.9 µM) | MIC (Salmonella typhimurium): 8 µg/mL (≈ 5.36 µM) | Kd ([1]; KD, steady state response, SPR, BamA-β, concentration range 0.019 µM to 20 µM): ~800 nM | koff ([1]; read-out: kd (dissociation rate)): 0.0673 s⁻¹ | MIC (Escherichia coli; [3]): 8 µg/mL (≈ 5.36 µM) | MIC (Escherichia coli; K12 MG1655 BamA G429V, G807V): 8 µg/mL (≈ 5.36 µM) | MIC (Escherichia coli; MG1655 bamA G429C, generated in the present study): 32 µg/mL (≈ 21.4 µM) | MIC (Escherichia coli; strain 1 (darobactin-resistant MG1655 strain previously reported)): 8 µg/mL (≈ 5.36 µM) | MIC (Escherichia coli; strain 2 (darobactin-resistant MG1655 strain previously reported)): 8 µg/mL (≈ 5.36 µM) | MIC (Escherichia coli; [4]): 2 µg/mL (≈ 1.34 µM) | MIC (Escherichia coli; strain CRE1006, broth microdilution, MHB, 18-20 h, 37 °C): 4 µg/mL (≈ 2.68 µM) | MIC (Escherichia coli; strain K12 MG1655 (WT)): 2 µg/mL (≈ 1.34 µM) | MIC (Escherichia coli; strain M2, broth microdilution, MHB, 18-20 h, 37 °C, repeated three times): 16 µg/mL (≈ 10.7 µM) | MIC (Escherichia coli; strain M6, broth microdilution, MHB, 18-20 h, 37 °C): 8 µg/mL (≈ 5.36 µM) | MIC (Escherichia coli; strain M10, broth microdilution, MHB, 18-20 h, 37 °C): 4 µg/mL (≈ 2.68 µM) | MIC (Escherichia coli; strain M11, broth microdilution, MHB, 18-20 h, 37 °C): 4 µg/mL (≈ 2.68 µM) | MIC (Staphylococcus aureus; strain ATCC 29737): >64 µg/mL | MIC (Staphylococcus aureus; strain ATCC 43300): >64 µg/mL | Tmax [2]: 2 h | Cmax ([2]; SD): 60.7 µg/mL | half-life ([2]; SD): 2.4 h | MIC (Shigella flexneri): 2 µg/mL (≈ 1.34 µM) | MIC (Salmonella entereditis): 8 µg/mL (≈ 5.36 µM) | MIC (Klebsiella pneumoniae; strain ATCC 700603): 8 µg/mL (≈ 5.36 µM) | MIC (Klebsiella pneumoniae; strain CRE1007): 8 µg/mL (≈ 5.36 µM) | MIC (Klebsiella pneumoniae; strain CRE1008): 8 µg/mL (≈ 5.36 µM) | MIC (Klebsiella pneumoniae; strain CRE1011): 8 µg/mL (≈ 5.36 µM) | MIC (Klebsiella pneumoniae; strain CRE1012): 8 µg/mL (≈ 5.36 µM) | MIC (Klebsiella pneumoniae; strain M7): 64 µg/mL (≈ 42.9 µM)

WINAFANWTKRI (also: bicyclic or more (positions not given here)) [Compound 3, xenorceptide A3]
MIC (Morganella morganii; strain ATCC 25830): 64 µg/mL | MIC (Acinetobacter baumannii; strain ATCC 19606): >64 µg/mL | MIC (Bacillus subtilis): >64 µg/mL | MIC (Pseudomonas aeruginosa; strain ATCC 9027): 64 µg/mL | MIC (Escherichia coli; [4]): 8 µg/mL | MIC (Staphylococcus aureus; strain ATCC 29737): >64 µg/mL | MIC (Klebsiella pneumoniae; strain ATCC 700603): 8 µg/mL

WINAFGNWTKSF (also: bicyclic or more (positions not given here)) [Compound 16, xenorceptide A16]
MIC (Enterobacter cloacae; strain ATCC 13047): >64 µg/mL | MIC (Enterococcus faecalis): >64 µg/mL | MIC (Acinetobacter baumannii; strain ATCC 19606): >64 µg/mL | MIC (Escherichia coli; [4]): >64 µg/mL | MIC (Staphylococcus aureus; strain ATCC 29737): >64 µg/mL | MIC (Klebsiella pneumoniae; strain ATCC 700603): >64 µg/mL

WVNAFAKWTKRI (also: bicyclic or more (positions not given here)) [Compound 11, xenorceptide A11]
MIC (Enterobacter cloacae; strain ATCC 13047): 8 µg/mL | MIC (Enterococcus faecalis): >64 µg/mL | MIC (Acinetobacter baumannii; strain ATCC 19606): >64 µg/mL | MIC (Escherichia coli; [4]): 4 µg/mL | MIC (Staphylococcus aureus; strain ATCC 29737): >64 µg/mL | MIC (Klebsiella pneumoniae; strain ATCC 700603): 8 µg/mL

WVNAFANWPKRF (also: bicyclic or more (positions not given here)) [Compound 13, xenorceptide A13]
MIC (Enterobacter cloacae; strain ATCC 13047): >64 µg/mL | MIC (Enterococcus faecalis): >64 µg/mL | MIC (Acinetobacter baumannii; strain ATCC 19606): >64 µg/mL | MIC (Escherichia coli; [4]): 8 µg/mL | MIC (Staphylococcus aureus; strain ATCC 29737): >64 µg/mL | MIC (Klebsiella pneumoniae; strain ATCC 700603): 32 µg/mL

WVNAFANWSKAL (also: bicyclic or more (positions not given here)) [Compound 15, xenorceptide A15]
MIC (Enterobacter cloacae; strain ATCC 13047): >64 µg/mL | MIC (Enterococcus faecalis): >64 µg/mL | MIC (Acinetobacter baumannii; strain ATCC 19606): >64 µg/mL | MIC (Escherichia coli; [4]): 64 µg/mL | MIC (Staphylococcus aureus; strain ATCC 29737): >64 µg/mL | MIC (Klebsiella pneumoniae; strain ATCC 700603): >64 µg/mL

WVNAFANWSKSF (also: bicyclic or more (positions not given here)) [Compound 6, xenorceptide A6]
MIC (Acinetobacter baumannii; strain ATCC 19606): >64 µg/mL | MIC (Pseudomonas aeruginosa; strain ATCC 9027): >64 µg/mL | MIC (Escherichia coli; [4]): 64 µg/mL | MIC (Staphylococcus aureus; strain ATCC 29737): >64 µg/mL | MIC (Klebsiella pneumoniae; strain ATCC 700603): >64 µg/mL

WVNAFANWTKRF (also: bicyclic or more (positions not given here)) [Compound 8, xenorceptide A8]
MIC (Acinetobacter baumannii; strain ATCC 19606): >64 µg/mL | MIC (Pseudomonas aeruginosa; strain ATCC 9027): 64 µg/mL | MIC (Escherichia coli; [4]): 2 µg/mL | MIC (Staphylococcus aureus; strain ATCC 29737): >64 µg/mL | MIC (Klebsiella pneumoniae; strain ATCC 700603): 4 µg/mL

WVNAFARWDKKF (also: bicyclic or more (positions not given here)) [Compound 7, xenorceptide A7]
MIC (Acinetobacter baumannii; strain ATCC 19606): >64 µg/mL | MIC (Pseudomonas aeruginosa; strain ATCC 9027): >64 µg/mL | MIC (Escherichia coli; [4]): 64 µg/mL | MIC (Staphylococcus aureus; strain ATCC 29737): >64 µg/mL | MIC (Klebsiella pneumoniae; strain ATCC 700603): >64 µg/mL

WVNAFGNWSKSL (also: bicyclic or more (positions not given here)) [Compound 14, xenorceptide A14]
MIC (Enterobacter cloacae; strain ATCC 13047): 64 µg/mL | MIC (Enterococcus faecalis): >64 µg/mL | MIC (Acinetobacter baumannii; strain ATCC 19606): >64 µg/mL | MIC (Escherichia coli; [4]): 64 µg/mL | MIC (Staphylococcus aureus; strain ATCC 29737): >64 µg/mL | MIC (Klebsiella pneumoniae; strain ATCC 700603): >64 µg/mL

WVNAFVNWPKSF (also: bicyclic or more (positions not given here)) [Compound 5, xenorceptide A5]
MIC (Acinetobacter baumannii; strain ATCC 19606): >64 µg/mL | MIC (Pseudomonas aeruginosa; strain ATCC 9027): >64 µg/mL | MIC (Escherichia coli; [4]): 16 µg/mL | MIC (Staphylococcus aureus; strain ATCC 29737): >64 µg/mL | MIC (Klebsiella pneumoniae; strain ATCC 700603): 32 µg/mL

WVNAYARWTKRF (also: bicyclic or more (positions not given here)) [Compound 12, xenorceptide A12]
MIC (Enterobacter cloacae; strain ATCC 13047): >64 µg/mL | MIC (Enterococcus faecalis): >64 µg/mL | MIC (Acinetobacter baumannii; strain ATCC 19606): >64 µg/mL | MIC (Escherichia coli; [4]): 4 µg/mL | MIC (Staphylococcus aureus; strain ATCC 29737): >64 µg/mL | MIC (Klebsiella pneumoniae; strain ATCC 700603): 16 µg/mL

WVNAYARWTNRF (also: bicyclic or more (positions not given here)) [Compound 4, xenorceptide A4]
MIC (Morganella morganii; strain ATCC 25830): 64 µg/mL | MIC (Acinetobacter baumannii; strain ATCC 19606): >64 µg/mL | MIC (Bacillus subtilis): >64 µg/mL | MIC (Pseudomonas aeruginosa; strain ATCC 9027): >64 µg/mL | MIC (Escherichia coli; [4]): 8 µg/mL | MIC (Staphylococcus aureus; strain ATCC 29737): >64 µg/mL | MIC (Klebsiella pneumoniae; strain ATCC 700603): 16 µg/mL

colistin [reference compound]
time to development of resistance in serial passage (E. coli M6; sub-inhibitory concentrations, MHB): 3 days

dynobactin A [reference compound]
MIC (Escherichia coli; [3]): 16 µg/mL | MIC (Escherichia coli; K12 MG1655 BamA G429V, G807V): > 128 µg/mL | MIC (Escherichia coli; [4]): 8 µg/mL | MIC (Escherichia coli; strain K12 MG1655 (WT)): 16 µg/mL
